Measured values from paper PMC10369496, “Cu(II) and Zn(II) Complexes of New 8-Hydroxyquinoline Schiff Bases: Investigating Their Structure, Solution Speciation, and Anticancer Potential” (Inorganic Chemistry, 2023).
“Also recorded” adds a separate entry of the source. Where two headings read alike, the source gives them in different places.

Experiments:
[1] = Proton dissociation constants by UV–vis spectrophotometric titrations; type: physicochemical; conditions: water with 0.10 M KCl, I = 0.1 M KCl, t = 25.0 °C
Method: (§1) The UV–vis titrations were performed with a 0.10 M carbonate-free KOH solution using a Metrohm 665 Dosimat buret and an Orion 710A pH-meter equipped with a Metrohm combined electrode (type 6.0234.100). […] The average water ionization constant (pKw) is 13.76 ± 0.05. The path length was 1 cm, and the temperature was 25.0 ± 0.1 °C. An ionic strength of 0.10 M KCl was used to keep the activity coefficients constant. The samples were deoxygenated by bubbling argon through the system for 10 min. Spectrophotometric titrations were carried out using an Agilent Cary 8454 diode array spectrophotometer (Santa Clara, CA) in water on samples containing the ligands at 60 μM, in the pH range from 1.5 to 11.5 in the absence or in the presence of 1, 0.5, or 0.25 equiv of Cu(II) and Zn(II) ions, using 10.00 mL of sample volumes. Proton dissociation constants (Ka) of the ligand precursors, as well as stoichiometry and overall stability constants (β) of the metal complexes, were calculated by the computer program PSEQUAD.[20]

[2] = Overall stability (formation) constants of Cu(II) complexes by UV–vis spectrophotometric titrations; type: physicochemical; conditions: I = 0.1 M KCl, t = 25.0 °C; for log β (CuL2): bis-ligand Cu(II) complex; for log β (CuL): mono-ligand Cu(II) complex
Method: as §1

[3] = Overall stability (formation) constants of Zn(II) complexes by UV–vis spectrophotometric titrations; type: physicochemical; conditions: I = 0.1 M KCl, t = 25.0 °C; for log β (ZnL2): bis-ligand Zn(II) complex; for log β (ZnL): mono-ligand Zn(II) complex
Method: as §1

[4] = Distribution coefficient, shake-flask n-octanol/buffered aqueous solution pH 7.40; type: physicochemical; conditions: n-octanol/water partitioning, pH 7.40, 25 °C; for logD at 3 h: n-octanol/buffered aqueous solution, pH 7.4, read-out: log D7.4
Method: The distribution coefficients (D7.4) of the compounds were determined by the shake-flask method in n-octanol/buffered aqueous solution at pH 7.40 (25.0 ± 0.2 °C). The ligand precursors and the complexes were dissolved in 10 mM HEPES presaturated with n-octanol. The aqueous solution and n-octanol (1:1 ratio) were gently mixed with a 360° vertical rotation (∼20 rpm) for 3 h; then, the samples were centrifuged at 3000 rpm for 5 min. Two phases were separated, and their UV–vis spectra were recorded. The D7.4 value was calculated as follows [drawing 1] 1

[5] = system: Human malignant melanoma A375 cells; assay: Antiproliferative activity in A375 cells, CellTiter-Glo 3D luminescent method; type: cell-based
Method: (§2) Cell culture media and antibiotics were obtained from Gibco (Thermo Fisher Scientific). Human malignant melanoma A375 cells (ATCC CRL-1619TM) and human keratinocytes HaCaT (CLS 300493) were cultured in DMEM-Glutamax supplemented with 10% fetal bovine serum (FBS), hereafter designated as complete medium. For human keratinocytes, 100 IU/mL of penicillin and 100 μg/mL of streptomycin (Gibco, Thermo Fisher Scientific) were also used. The cell lines were kept at 37 °C with a 5% CO2 atmosphere. The maintenance of cell cultures was performed every 2–3 days until the cells reached a confluency of about 80%.
The CellTiter-Glo 3D kit (Promega) was used to assess the viability of the A375 cells in the presence or absence (negative control) of increasing concentrations of the free ligands and complexes. The kit detects adenosine triphosphate, which is proportional to the number of viable cells, therefore allowing the assessment of cell proliferation. First, A375 cells were plated at a concentration of 5 × 10^4 cells/mL in 96-well plates (200 μL/well) and cultured for 24 h in the culture conditions described above. Then, cells were incubated with the free ligands (1–100 μM), Zn(II) complexes (1 to 80 μM), and Cu(II) complexes (1–20 μM) in 96-well plates. After an incubation period of 48 h, 100 μL of each well was discarded. Then, 40 μL of CellTiter-Glo 3D reagent was added into each well and the contents were mixed vigorously for 15 min to induce cell lysis at room temperature. Finally, the luminescence was measured using a Varioskan Lux multimode plate reader (Thermo Scientific). Values presented are mean ± standard deviation (SD) of two independent biological experiments with 4 technical replicates per condition.
(§3) GraphPad Prism8 (GraphPad Software, San Diego, CA) was used to analyze cell proliferation, and values were plotted and fit a standard log dose–response curve to generate IC50 values.

[6] = system: human keratinocytes HaCaT; assay: MTT assay in nontumorigenic HaCaT cells; type: cell-based; conditions: for IC50: HaCaT, 48 h incubation, MTT colorimetric method; for Selectivity index (SI): IC50 HaCaT/IC50 A375
Method: as §2
The MTT assay was used to assess cell viability in the presence of increasing concentrations of selected compounds. Briefly, HaCaT cells were plated at a concentration of 5 × 10^4 cells/mL in 96-well plates (200 μL/well) and cultured for 24 h in the culture conditions described above. Then, cells were incubated with free ligands and metal complexes at concentrations ranging from 5 to 30 μM. Negative controls were cells maintained in complete culture medium. The culture medium was discarded after 48 h, cells were washed with PBS (2 times), and then 50 μL of MTT at 0.5 mg/mL in incomplete medium was added to all wells. After 2–3 h of incubation period at 37 °C, 100 μL of DMSO was added to each well to solubilize the formazan crystals, and absorbance was measured at 570 nm using a microplate reader Model 680 (Bio-Rad, CA). Two independent experiments were carried out, with six replicates per condition.
as §3

[7] = Thermodynamic solubility in water at pH 7.40; type: physicochemical; conditions: pH 7.40, 10 mM HEPES, 37 °C, 24 h incubation
Method: Thermodynamic solubility (S) of the free ligands and complexes was determined for the saturated solutions in water at pH 7.40 in 10 mM HEPES at 37.0 ± 0.2 °C. The concentration of the compounds was determined by UV–vis spectrophotometry using stock solutions with known concentrations dissolved in 100% DMSO, 50%, and 25% (v/v) DMSO/buffered aqueous solutions for the calibration.

[8] = molecular target: T1, bovine serum albumin (BSA) (Bos taurus, UniProt P02769); assay: Fluorescence quenching titration of BSA; type: binding
T1 construct: bovine serum albumin (BSA) stock solutions of lyophilized protein
Method: The steady-state fluorescence emission spectra of a solution of 0.5–1.0 μM BSA (in HEPES buffer) were recorded between 310 and 500 nm with λexc = 295 nm after additions of the complexes’ solutions directly to the cuvette (optical path of 1.0 cm). The UV–vis spectrum of each sample was used to make corrections and minimize the inner filter and reabsorption interferences.[22] Solutions with the same concentration of complex and no BSA were recorded and used as blank spectra.
Data were analyzed by fitting a second-order equation, which accounts for both static and dynamic quenching [drawing 2] 2 where I0 and I are the fluorescence intensities in the absence and presence of quencher (Q), and KS and KD are the static and dynamic quenching constants, respectively.
The Stern–Volmer equation was used for low quencher concentrations to determine the Stern–Volmer quenching constant (KSV), a measure of the quenching strength [drawing 3] 3

A375 cells = assay: Guava ViaCount assay by flow cytometry; type: cell-based, human; conditions: A375, 48 h; Zn(L2)2 at 15 μM, Cu2(L2)4 at 12 μM
Method: For the Guava ViaCount assay, A375 cells were plated at a concentration of 8 × 10^4 cells/mL in 24-well plates (1 mL/well) and cultured for 24 h in the culture conditions described above.[23] Cells were then incubated with Zn(L2)2 and Cu2(L2)4 at concentrations of 15 and 12 μM, respectively. The positive control, dacarbazine (DTIC), was tested at 70 μM. Cells in the presence of complete culture medium constituted the negative control group. After an incubation period of 48 h, cell culture supernatants were collected, and adherent cells were detached using TrypLEExpress (Invitrogen). Detached cells were then added to supernatants, and the wells were washed using PBS with 2% FBS to recover any remaining cells. The recovered suspension was centrifuged for 5 min at 700 g. The supernatants were discarded, and cells were suspended in PBS with 2% FBS. Then, on a 96-well plate, 20 μL of cell suspension was incubated with 180 μL of Guava ViaCount reagent (Merck Millipore, Darmstadt, Germany) for 5 min at r.t. Using a Guava EasyCyte 5HT Flow cytometer (Guava Technologies, Inc., Hayward, CA), data were collected and analyzed with the ViaCount software module with an acquisition of 10,000 events per sample. GraphPad Prism8 was used to analyze cell proliferation (GraphPad Software, San Diego, CA). One experiment was carried out, with three replicates per condition.

[9] = Stability in aqueous HEPES buffer (5% DMSO) by UV–vis; type: physicochemical; conditions: HEPES 10 mM pH 7.4 with 5% (v/v) DMSO; 100–135 μM; 24 h
Method: Stock solutions of each complex were freshly prepared in DMSO and diluted with HEPES buffer (10 mM, pH 7.4), ensuring that the organic solvent content was less than 5% (v/v). The samples were monitored by UV–vis absorption spectrophotometry for 6 consecutive hours, and a final measurement was done after 24 h.

[10] = Stability by 1H NMR in DMSO-d6 or 30% DMSO-d6/H2O; type: physicochemical; conditions: 1 mM
Method: A Bruker Avance III HD Ascend 500 Plus instrument (Billerica, MA) was used for NMR spectroscopic titrations and time-dependent studies applying a WATERGATE water suppression pulse scheme in the presence of 10% (v/v) D2O/H2O, and the sodium trimethylsilylpropanesulfonate (DSS) standard was added to samples as the internal reference. ^1H NMR titrations were carried out for the ligand precursors in the presence of 0.1 M KCl. For free ligands and complexes’ stability measurements, ^1H NMR spectra were recorded in DMSO-d6 or 30% (v/v) DMSO-d6/H2O.

melanoma cell line A375 = system: melanoma cell line A375; set-up: method as in doi:10.1016/j.phytol.2021.07.008; conditions: A375, MTT method; cited from earlier work
[11] = quinolinium nitrogen, read-out: pKa (NqH+)
[12] = Homo sapiens, A-375, A375, 48 h incubation

T1 sequence (P02769 25-607): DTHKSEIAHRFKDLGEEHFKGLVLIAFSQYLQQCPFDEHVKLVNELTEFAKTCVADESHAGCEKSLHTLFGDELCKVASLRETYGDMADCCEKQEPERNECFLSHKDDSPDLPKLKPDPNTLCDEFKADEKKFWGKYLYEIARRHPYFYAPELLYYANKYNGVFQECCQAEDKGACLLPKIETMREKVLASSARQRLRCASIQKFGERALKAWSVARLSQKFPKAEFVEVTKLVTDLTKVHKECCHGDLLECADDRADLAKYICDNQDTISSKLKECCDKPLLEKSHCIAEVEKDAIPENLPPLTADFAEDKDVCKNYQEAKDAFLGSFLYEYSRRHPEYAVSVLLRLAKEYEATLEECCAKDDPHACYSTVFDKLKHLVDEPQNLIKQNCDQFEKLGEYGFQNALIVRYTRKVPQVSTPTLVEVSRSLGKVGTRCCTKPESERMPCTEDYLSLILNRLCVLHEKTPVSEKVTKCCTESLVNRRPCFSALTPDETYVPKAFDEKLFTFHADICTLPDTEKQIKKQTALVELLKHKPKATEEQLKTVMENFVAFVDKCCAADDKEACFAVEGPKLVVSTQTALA

pKa ([1]; phenol OH, read-out: pKa (OH)) | pKa [1, 11] | log β (CuL2) [2] | log β (CuL) [2] | log β (ZnL2) [3] | log β (ZnL) [3] | logD at 3 h [4] | IC50 [5, 12] [µM] | log D7.4 [4] | Thermodynamic solubility S7.4 [7] [µM] | IC50 ([5]; A375, 48 h incubation) [µM] | stability in aqueous media [9] | SMILES | IC50 ([6]; Homo sapiens) [µM] | IC50 [6] [µM] | Selectivity index (SI) [6] | also measured
8.84 ± 0.03 | 2.83 ± 0.03 | 15.77 ± 0.03 | 7.98 ± 0.02 | 14.32 ± 0.02 | 6.86 ± 0.04 | 0.64 | 15.9 ± 0.1 |  |  |  |  | Oc1cccc2ccc(/C=N/CCN3CCOCC3)nc12 [L2] | > 30 |  |  | 
8.77 ± 0.03 | 2.8 ± 0.03 | 15.60 ± 0.02 | 8.36 ± 0.01 | 14.42 ± 0.01 | 6.90 ± 0.03 | 0.63 | 15.2 ± 0.2 |  |  |  |  | Oc1cccc2ccc(/C=N/CCN3CCCCC3)nc12 [L1] | > 30 |  |  | 
8.78 ± 0.03 | 2.77 ± 0.03 | 15.57 ± 0.01 | 8.34 ± 0.01 | 13.68 ± 0.04 | 6.87 ± 0.01 | 0.76 | 25.8 ± 0.3 |  |  |  |  | Oc1cccc2ccc(/C=N/CCCN3CCOCC3)nc12 [L3] | > 30 |  |  | 

The remaining lines, values behind:

SMILES | pKa ([1]; phenol OH, read-out: pKa (OH)) | pKa [1, 11] | log β (CuL2) [2] | log β (CuL) [2] | log β (ZnL2) [3] | log β (ZnL) [3] | logD at 3 h [4] | IC50 [5, 12] [µM] | log D7.4 [4] | Thermodynamic solubility S7.4 [7] [µM] | IC50 ([5]; A375, 48 h incubation) [µM] | stability in aqueous media [9] | IC50 ([6]; Homo sapiens) [µM] | IC50 [6] [µM] | Selectivity index (SI) [6] | also measured
[Cu+2].[O-]c1cccc2ccc(/C=N/CCCN3CCOCC3)nc12.[O-]c1cccc2ccc(/C=N/CCCN3CCOCC3)nc12 [Cu(L3)2] |  |  |  |  |  |  |  |  | >1.5 | 1821 | 6.7 ± 0.2 |  |  | 8.1 ± 0.2 | 1.2 | Stern–Volmer quenching constant KSV ([8]; fit at low quencher concentrations, HEPES pH 7.4): (2.20 ± 0.07) × 10^5 M^–1; % quenching ([8]; molar ratio complex:BSA = 10, λexc = 295 nm): 48%
[O-]c1cccc2ccc(/C=N/CCN3CCOCC3)nc12.[O-]c1cccc2ccc(/C=N/CCN3CCOCC3)nc12.[Zn+2] [Zn(L2)2] |  |  |  |  |  |  |  |  | +0.86 ± 0.09 | 1674 | 10.3 ± 1.6 | did not show signs of decomposition |  | 24.4 ± 0.6 | 2.4 | percentage of dead and apoptotic cells (A375 cells): 10%
[O-]c1cccc2ccc(/C=N/CCN3CCCCC3)nc12.[O-]c1cccc2ccc(/C=N/CCN3CCCCC3)nc12.[Zn+2] [Zn(L1)2] |  |  |  |  |  |  |  |  | >1.5 | 694 | 9.1 ± 1.5 | did not show signs of decomposition |  | 22.3 ± 0.7 | 2.5 | period the 1H NMR spectra remained unchanged [10]: 8 days
[O-]c1cccc2ccc(/C=N/CCCN3CCOCC3)nc12.[O-]c1cccc2ccc(/C=N/CCCN3CCOCC3)nc12.[Zn+2] [Zn(L3)2] |  |  |  |  |  |  |  |  | >1.5 | 87 | 9.3 ± 1.1 | suggests hydrolysis; also recorded: significant hydrolysis |  | 26.3 ± 0.7 | 2.8 | 
N.N.[Cl][Pt][Cl] [Cisplatin] |  |  |  |  |  |  |  |  |  |  |  |  |  |  |  | IC50 (melanoma cell line A375): 10.9 ± 1.3 µM
